Assay results from ChEMBL document CHEMBL4177730, “Rational modification of semaxanib and sunitinib for developing a tumor growth inhibitor targeting ATP binding site of tyrosine kinase” (2018).
The source made the active and inactive calls. The calls are words filed in the database; no cut-off is given here.

How the values were obtained:
SR = experiment: Growth inhibition of human SR cells after 48 hrs by sulforhodamine B assay; format: functional
EKVX [1] = experiment: Growth inhibition of human EKVX cells after 48 hrs by sulforhodamine B assay; format: functional
NCI-H23 = experiment: Growth inhibition of human NCI-H23 cells after 48 hrs by sulforhodamine B assay; format: functional; conditions: NCI-H23, 48 h
NCI-H322M = experiment: Growth inhibition of human NCI-H322M cells after 48 hrs by sulforhodamine B assay; format: functional
NCI-H522 [2] = experiment: Growth inhibition of human NCI-H522 cells after 48 hrs by sulforhodamine B assay; format: functional; conditions: NCI-H522, 48 h
HCT-116 [3] = experiment: Growth inhibition of human HCT116 cells after 48 hrs by sulforhodamine B assay; format: functional; conditions: HCT-116, 48 h
HT-29 [4] = experiment: Growth inhibition of human HT-29 cells after 48 hrs by sulforhodamine B assay; format: functional; conditions: HT-29, 48 h
SF-539 [5] = experiment: Growth inhibition of human SF539 cells after 48 hrs by sulforhodamine B assay; format: functional; conditions: SF-539, 48 h
SK-MEL-2 [6] = experiment: Growth inhibition of human SK-MEL-2 cells after 48 hrs by sulforhodamine B assay; format: functional; conditions: SK-MEL-2, 48 h
OVCAR-4 = experiment: Growth inhibition of human OVCAR4 cells after 48 hrs by sulforhodamine B assay; format: functional; conditions: OVCAR-4, 48 h
OVCAR-5 = experiment: Growth inhibition of human OVCAR5 cells after 48 hrs by sulforhodamine B assay; format: functional; conditions: OVCAR-5, 48 h
OVCAR-8 [7] = experiment: Growth inhibition of human OVCAR8 cells after 48 hrs by sulforhodamine B assay; format: functional; conditions: OVCAR-8, 48 h
NCI/ADR-RES = experiment: Growth inhibition of human NCI-ADR-RES cells after 48 hrs by sulforhodamine B assay; format: functional
ACHN = experiment: Growth inhibition of human ACHN cells after 48 hrs by sulforhodamine B assay; format: functional
RXF 393 = experiment: Growth inhibition of human RXF393 cells after 48 hrs by sulforhodamine B assay; format: functional; conditions: RXF 393, 48 h
DU-145 [8] = experiment: Growth inhibition of human DU145 cells after 48 hrs by sulforhodamine B assay; format: functional; conditions: DU-145, 48 h
MCF7 = experiment: Growth inhibition of human MCF7 cells after 48 hrs by sulforhodamine B assay; format: functional; conditions: MCF7, 48 h
MDA-MB-231 = experiment: Growth inhibition of human MDA-MB-231 cells after 48 hrs by sulforhodamine B assay; format: functional; conditions: MDA-MB-231, 48 h
Hs-578T = experiment: Growth inhibition of human Hs 578T cells after 48 hrs by sulforhodamine B assay; format: functional
HL-60(TB) = experiment: Growth inhibition of human HL-60(TB) cells at 10 uM after 48 hrs by sulforhodamine B assay; format: functional, cell-based
A549 = experiment: Growth inhibition of human A549/ATCC cells at 10 uM after 48 hrs by sulforhodamine B assay; format: functional, cell-based
EKVX [9] = experiment: Growth inhibition of human EKVX cells at 10 uM after 48 hrs by sulforhodamine B assay; format: functional, cell-based
NCI-H226 = experiment: Growth inhibition of human NCI-H226 cells at 10 uM after 48 hrs by sulforhodamine B assay; format: functional, cell-based
NCI-H522 [10] = experiment: Growth inhibition of human NCI-H522 cells at 10 uM after 48 hrs by sulforhodamine B assay; format: functional, cell-based
HCT-116 [11] = experiment: Growth inhibition of human HCT116 cells at 10 uM after 48 hrs by sulforhodamine B assay; format: functional, cell-based
HT-29 [12] = experiment: Growth inhibition of human HT-29 cells at 10 uM after 48 hrs by sulforhodamine B assay; format: functional, cell-based
SF-295 = experiment: Growth inhibition of human SF295 cells at 10 uM after 48 hrs by sulforhodamine B assay; format: functional, cell-based
SF-539 [13] = experiment: Growth inhibition of human SF539 cells at 10 uM after 48 hrs by sulforhodamine B assay; format: functional, cell-based
SNB-75 = experiment: Growth inhibition of human SNB75 cells at 10 uM after 48 hrs by sulforhodamine B assay; format: functional, cell-based
MDA-MB-435 = experiment: Growth inhibition of human MDA-MB-435 cells at 10 uM after 48 hrs by sulforhodamine B assay; format: functional, cell-based
SK-MEL-2 [14] = experiment: Growth inhibition of human SK-MEL-2 cells at 10 uM after 48 hrs by sulforhodamine B assay; format: functional, cell-based
SK-MEL-5 = experiment: Growth inhibition of human SK-MEL-5 cells at 10 uM after 48 hrs by sulforhodamine B assay; format: functional, cell-based
OVCAR-3 = experiment: Growth inhibition of human OVCAR3 cells at 10 uM after 48 hrs by sulforhodamine B assay; format: functional, cell-based
OVCAR-8 [15] = experiment: Growth inhibition of human OVCAR8 cells at 10 uM after 48 hrs by sulforhodamine B assay; format: functional, cell-based
CAKI-1 = experiment: Growth inhibition of human CAKI-1 cells at 10 uM after 48 hrs by sulforhodamine B assay; format: functional, cell-based
SN12C = experiment: Growth inhibition of human SN12C cells at 10 uM after 48 hrs by sulforhodamine B assay; format: functional, cell-based
DU-145 [16] = experiment: Growth inhibition of human DU145 cells at 10 uM after 48 hrs by sulforhodamine B assay; format: functional, cell-based
MDA-MB-468 = experiment: Growth inhibition of human MDA-MB-468 cells at 10 uM after 48 hrs by sulforhodamine B assay; format: functional, cell-based
[17] = read-out: LC50 (the source's name)

For O=C1/C(=C\c2cccn2Cc2ccccc2)c2ccccc2N1c1c(Cl)cccc1Cl, the GI50 (SR) was > 100 µM, the TGI (SR) was > 100 µM and the CC50 (SR; [17]) was > 100 µM. The GI50 (EKVX [1]) was 0.41 µM, the TGI (EKVX [1]) was 7.94 µM and the CC50 (EKVX [1]; [17]) was > 100 µM. The GI50 (NCI-H23) was 39.8 µM, the TGI (NCI-H23) was > 100 µM and the CC50 (NCI-H23; [17]) was > 100 µM. For the same molecule, the GI50 (NCI-H322M) was 14.8 µM, the TGI (NCI-H322M) was > 100 µM and the CC50 (NCI-H322M; [17]) was > 100 µM. For the same molecule, the GI50 (NCI-H522 [2]) was > 100 µM, the TGI (NCI-H522 [2]) was > 100 µM and the CC50 (NCI-H522 [2]; [17]) was > 100 µM. For the same molecule, the GI50 (HCT-116 [3]) was 3.38 µM, the TGI (HCT-116 [3]) was > 100 µM and the CC50 (HCT-116 [3]; [17]) was > 100 µM. For the same molecule, the GI50 (HT-29 [4]) was 6.45 µM, the TGI (HT-29 [4]) was > 100 µM and the CC50 (HT-29 [4]; [17]) was > 100 µM. For the same molecule, the GI50 (SF-539 [5]) was > 100 µM, the TGI (SF-539 [5]) was > 100 µM and the CC50 (SF-539 [5]; [17]) was > 100 µM. For the same molecule, the GI50 (SK-MEL-2 [6]) was 2.23 µM, the TGI (SK-MEL-2 [6]) was > 100 µM and the CC50 (SK-MEL-2 [6]; [17]) was > 100 µM. For the same molecule, the GI50 (OVCAR-4) was 0.12 µM, the TGI (OVCAR-4) was > 100 µM and the CC50 (OVCAR-4; [17]) was > 100 µM. For the same molecule, the GI50 (OVCAR-5) was 3.89 µM, the TGI (OVCAR-5) was > 100 µM and the CC50 (OVCAR-5; [17]) was > 100 µM. The GI50 (OVCAR-8 [7]) was > 100 µM, the TGI (OVCAR-8 [7]) was > 100 µM and the CC50 (OVCAR-8 [7]; [17]) was > 100 µM. For the same molecule, the GI50 (NCI/ADR-RES) was > 100 µM, the TGI (NCI/ADR-RES) was > 100 µM and the CC50 (NCI/ADR-RES; [17]) was > 100 µM. The GI50 (ACHN) was 8.31 µM, the TGI (ACHN) was > 100 µM and the CC50 (ACHN; [17]) was > 100 µM. The GI50 (RXF 393) was > 100 µM, the TGI (RXF 393) was > 100 µM and the CC50 (RXF 393; [17]) was > 100 µM. The GI50 (DU-145 [8]) was > 100 µM, the TGI (DU-145 [8]) was > 100 µM and the CC50 (DU-145 [8]; [17]) was > 100 µM. The GI50 (MCF7) was 0.035 µM, the TGI (MCF7) was > 100 µM and the CC50 (MCF7; [17]) was > 100 µM. For the same molecule, the GI50 (MDA-MB-231) was 5.88 µM, the TGI (MDA-MB-231) was > 100 µM and the CC50 (MDA-MB-231; [17]) was > 100 µM. For the same molecule, the GI50 (Hs-578T) was > 100 µM, the TGI (Hs-578T) was > 100 µM and the CC50 (Hs-578T; [17]) was > 100 µM. For the same molecule, the “growth inhibition (GI)” value (HL-60(TB)) was “Active”, the “growth inhibition (GI)” value (A549) was “Active” and the “growth inhibition (GI)” value (EKVX [9]) was “Active”. The “growth inhibition (GI)” value (NCI-H226) was “Active”, the “growth inhibition (GI)” value (NCI-H522 [10]) was “Active” and the “growth inhibition (GI)” value (HCT-116 [11]) was “Active”. The “growth inhibition (GI)” value (HT-29 [12]) was “Active”, the “growth inhibition (GI)” value (SF-295) was “Active” and the “growth inhibition (GI)” value (SF-539 [13]) was “Active”. The “growth inhibition (GI)” value (SNB-75) was “Active”, the “growth inhibition (GI)” value (MDA-MB-435) was “Active” and the “growth inhibition (GI)” value (SK-MEL-2 [14]) was “Active”. For the same molecule, the “growth inhibition (GI)” value (SK-MEL-5) was “Active”, the “growth inhibition (GI)” value (OVCAR-3) was “Active” and the “growth inhibition (GI)” value (OVCAR-8 [15]) was “Active”. The “growth inhibition (GI)” value (CAKI-1) was “Active”, the “growth inhibition (GI)” value (SN12C) was “Active” and the “growth inhibition (GI)” value (DU-145 [16]) was “Active”. The “growth inhibition (GI)” value (MDA-MB-468) was “Active”.
